Test results as given in article PMC12314892, “Macrocyclic Phage Display for Identification of Selective Protease Substrates” (Journal of the American Chemical Society, 2025).
*1 amine or outer side, *2 acyl side, *3 side chain or, on linkers, in order; H or OH if unused. Where a SMILES comes first, the peptide text is derived from it. Bridges are numbered along the chain shown (N, C = ends). The star is where a group is joined. X1 = NC(=O)Cc1cc(=O)oc2cc(NC(=O)[C@@H]3CCCN3C(=O)Cn3nc(C[*:1])cc3C[*:2])ccc12; X2 = NC(=O)Cc1cc(=O)oc2cc(NC(=O)[C@@H]3CCCN3C(=O)Cn3nc(C[*:2])cc3C[*:1])ccc12; AMC = Cc1cc(=O)oc2cc(N*)ccc12; Cbz = O=C(OCc1ccccc1)*

Columns and labels:
Recombinant Human FAPα = biological target: T1, Recombinant Human FAPα (Homo sapiens, UniProt Q12884); test: Kinetic evaluation of substrates; type: biochemical; conditions: for kcat/KM / kcat / Km: 10 nM FAPα, 37 °C, 60 min, Michaelis-Menten fit, triplicates; for kcat / Km: ± SD; for Km: 50 mM Tris, 1 M NaCl, 1 mg/mL BSA, pH 7.5, ex/em 355/460 nm
T1 construct: purchased R&D Systems 3715-SE-010
T1 sequence (Q12884 1-760): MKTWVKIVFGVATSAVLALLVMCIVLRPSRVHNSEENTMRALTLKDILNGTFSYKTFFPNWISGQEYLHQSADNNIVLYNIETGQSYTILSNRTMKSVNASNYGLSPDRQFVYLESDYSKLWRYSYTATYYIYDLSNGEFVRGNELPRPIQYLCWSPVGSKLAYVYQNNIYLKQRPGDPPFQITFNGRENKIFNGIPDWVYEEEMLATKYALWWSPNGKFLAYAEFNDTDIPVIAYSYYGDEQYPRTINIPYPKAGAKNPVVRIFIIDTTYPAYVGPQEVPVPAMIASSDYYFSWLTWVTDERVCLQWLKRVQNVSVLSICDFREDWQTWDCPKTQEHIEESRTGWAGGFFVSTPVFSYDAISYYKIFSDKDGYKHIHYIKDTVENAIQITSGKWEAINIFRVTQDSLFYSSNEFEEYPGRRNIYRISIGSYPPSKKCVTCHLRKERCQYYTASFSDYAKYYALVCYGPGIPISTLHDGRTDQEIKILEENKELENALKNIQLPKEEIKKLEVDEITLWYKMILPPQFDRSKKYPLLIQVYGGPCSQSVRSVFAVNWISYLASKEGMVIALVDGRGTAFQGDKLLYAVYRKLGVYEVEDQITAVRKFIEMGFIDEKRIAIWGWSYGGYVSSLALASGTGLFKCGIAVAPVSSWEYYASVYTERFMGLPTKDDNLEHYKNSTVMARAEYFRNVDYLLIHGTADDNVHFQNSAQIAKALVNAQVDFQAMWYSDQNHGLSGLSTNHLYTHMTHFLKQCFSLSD
Method: (§1) Fluorogenic Substrate Cleavage Assay
(§2) The following proteases were used for the activity assay: Recombinant Human FAPα Protein, CF (R&D Systems, Catalog No.: 3715-SE-010), Recombinant Human Prolyl Oligopeptidase/PREP Protein, CF (R&D Systems, Catalog No.: 4308-SE-010). Recombinant Human DPP9 Protein, CF (R&D Systems, Catalog No.: 5419-SE-010). Recombinant Human DPP4 Protein (Sino Biological, Catalog No.: 10688-HNCH-10). The buffers used for the activity assay were: FAPα - 50 mM Tris, 1 M NaCl, 1 mg/mL BSA, pH 7.5, PREP- 25 mM Tris, 250 mM NaCl, 2.5 mM DTT, pH 7.5 (DTT was freshly added immediately before use), DPP9- 25 mM Tris, pH 7.5, DPP4- 25 mM Tris, pH
(§3) 7.5. The following commercial substrates were used: zGP-AMC (Bachem,Catalog No.: […]
(§4) conducted in Greiner Bio-One black microplates of 384 wells and polystyrene F-bottom (Catalog No.: 784076). All compounds were dissolved in DMSO at a concentration of 10 mM and then diluted into the respective buffer to the desired final concentration. The protease was added to the specified concentration before the fluorescence measurements. For fluorescence measurements, 2 μL of substrate was further diluted into 6 μL of buffer, followed by addition of 2 μL of enzyme in buffer. For no enzyme controls 2 μL of substrate was diluted into 8 μL of buffer.
(§5) The fluorescence was measured using a Cytation 3 plate reader (BioTek). All experiments have at least three technical replicates. All assays were conducted at 37°C for a minimum of 90 min, unless otherwise noted. Fluorescence measurements were performed at ex/em, 355/460 nm for ACC substrates. The substrates velocity was quantified by calculating the slope of the linear phase of the reaction as relative fluorescence units (RFU) per min.
(§6) Kinetic evaluation of substrates
(§7) To order to determine the kcat/KM, the previously indicated proteases were tested under their corresponding buffer conditions. Substrates were serially diluted in water, and 2 µL of each dilution was added to 6 µL of assay buffer in a 384-well plate. The plate was briefly centrifuged to ensure proper mixing and to eliminate air bubbles. Fluorescence measurements were initiated by adding 2 µL of the protease solution (prepared in activity buffer) to each well, yielding a final volume of 10 µL. Reactions were monitored at 37 °C for 60 minutes using a plate reader set to excitation/emission wavelengths of 355/460 nm. Control wells without enzyme contained 8 µL of assay buffer, instead of enzyme, and 2 µL of substrate. All measurements were performed in at least triplicate. The initial linear portion of each fluorescence progress curve was used to calculate initial reaction velocities (RFU/min). Calibration curves using free AMC were generated under the corresponding buffer and assay conditions to allow extrapolation of RFU values to µM concentrations. Michaelis-Menten kinetic parameters K M, kcat and kcat/,KM were determined using […]
(§8) GraphPad Prism version 10.4.1. […]
(§9) determined due to poor model fit. […]

[1] = biological target: T2, Recombinant Human Prolyl Oligopeptidase/PREP (Homo sapiens, UniProt P48147); test: Kinetic evaluation of substrates; type: biochemical; conditions: for SI (selectivity index, coefficient of the proteases kcat/Km), FAPα vs PREP: kcat/KM FAPα over kcat/KM PREP
T2 construct: purchased R&D Systems 4308-SE-010
T2 sequence (P48147 1-710): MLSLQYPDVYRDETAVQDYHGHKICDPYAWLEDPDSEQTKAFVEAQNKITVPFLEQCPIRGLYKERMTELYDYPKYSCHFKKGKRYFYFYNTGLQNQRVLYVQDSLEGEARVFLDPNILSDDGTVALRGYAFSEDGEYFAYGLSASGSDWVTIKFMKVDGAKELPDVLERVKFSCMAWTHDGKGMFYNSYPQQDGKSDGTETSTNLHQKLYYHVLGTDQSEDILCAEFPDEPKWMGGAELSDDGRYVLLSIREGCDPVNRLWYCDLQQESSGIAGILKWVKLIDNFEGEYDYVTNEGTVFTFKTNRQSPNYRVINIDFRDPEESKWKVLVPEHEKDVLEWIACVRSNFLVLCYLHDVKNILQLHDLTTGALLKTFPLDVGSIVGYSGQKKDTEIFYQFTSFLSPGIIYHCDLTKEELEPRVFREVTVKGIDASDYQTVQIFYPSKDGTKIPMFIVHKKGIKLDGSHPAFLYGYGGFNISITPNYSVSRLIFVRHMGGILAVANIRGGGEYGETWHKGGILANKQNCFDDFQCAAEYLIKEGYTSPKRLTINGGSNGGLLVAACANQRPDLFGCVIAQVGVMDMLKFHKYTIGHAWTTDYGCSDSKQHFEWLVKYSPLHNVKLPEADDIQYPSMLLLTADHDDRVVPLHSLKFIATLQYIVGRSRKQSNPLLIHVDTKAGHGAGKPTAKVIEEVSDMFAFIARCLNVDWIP
Method: as §1, §2, §3, §4, §5, §6, §7, §8, §9

[2] = 3 nM PREP, 37 °C, 60 min, Michaelis-Menten fit, triplicates

Row | SMILES | kcat/KM (Recombinant Human FAPα) | kcat (Recombinant Human FAPα) | SI (selectivity index, coefficient of the proteases kcat/Km), FAPα vs PREP [1] | Km (Recombinant Human FAPα) | SI (selectivity index, coefficient of the proteases kcat/Km), DPP4 vs FAPα (Recombinant Human FAPα; kcat/KM DPP4 over kcat/KM FAPα) | SI (selectivity index, coefficient of the proteases kcat/Km), DPP4 vs PREP ([1]; kcat/KM DPP4 over kcat/KM PREP) | Km ([1]; 3 nM PREP, 25 mM Tris, 250 mM NaCl, 2.5 mM DTT, pH 7.5, 37 °C, 60 min, triplicates, ± SD, FAP33.2 and FAP33.2A6 showed substrate inhibition) | kcat [1, 2] | kcat/KM [1, 2] | Ki ([1]; 3 nM PREP, substrate inhibition, 37 °C)
1 | CC(C)C[C@@H]1NC(=O)[C@H](CC(N)=O)NC(=O)[C@H](CCC(N)=O)NC(=O)[C@H](Cc2ccccc2)NC(=O)[C@H](CO)NC(=O)[C@H](C(C)C)NC(=O)[C@@H](N)CSCc2cc(nn2CC(=O)N2CCC[C@H]2C(=O)Nc2ccc3c(CC(N)=O)cc(=O)oc3c2)CSC[C@@H](C(=O)NCC(N)=O)NC(=O)[C@H](CC(=O)O)NC1=O [FAP-33.2] (H-CVSFQNLDCG-NH2; linker 1-9 via X2; N-terminus assumed) | 23633 M⁻¹ s⁻¹ | 0.709 ± 0.034 s⁻¹ | FAPα >>>PREP |  |  |  |  |  |  | 
2 | Cc1cc(=O)oc2cc(NC(=O)[C@@H]3CCCN3C(=O)CN)ccc12 [GP-AMC] (H-Gly-Pro-{AMC}) | 637 M⁻¹ s⁻¹ |  |  | 103 ± 31 µM | 597 | DPP4>>>PREP |  |  |  | 
3 | Cc1cc(=O)oc2cc(NC(=O)[C@@H]3CCCN3C(=O)CNC(=O)OCc3ccccc3)ccc12 [zGP-AMC] (Cbz-Gly-Pro-{AMC}) | 155793 M⁻¹ s⁻¹ | 22.59 ± 4.99 s⁻¹ | 0.24 | 145 ± 60 µM |  |  | 161 ± 91 µM | 113.05 s⁻¹ | 633723 M⁻¹ s⁻¹ | 
4 | CC(C)[C@@H]1NC(=O)[C@@H](N)CSCc2cc(n(CC(=O)N3CCC[C@H]3C(=O)Nc3ccc4c(CC(N)=O)cc(=O)oc4c3)n2)CSC[C@@H](C(=O)NCC(N)=O)NC(=O)[C@H](CC(=O)O)NC(=O)[C@H](C)NC(=O)[C@H](CC(N)=O)NC(=O)[C@H](CCC(N)=O)NC(=O)[C@H](Cc2ccccc2)NC(=O)[C@H](CO)NC1=O [FAP-33.2A6] (H-CVSFQNADCG-NH2; linker 1-9 via X1; N-terminus assumed) | 28312 M⁻¹ s⁻¹ | 0.906 ± 0.050 s⁻¹ | FAPα >>>PREP |  |  |  |  |  |  | 34.4 µM
